Like-named read-outs stand apart in the source and are kept apart here.
What was measured:
[1] = system: Desulfomonile tiedjei cells; experiment: PCE and TCE dechlorination by resuspended cells induced with 3-fluorobenzoate versus non-induced cells (Table 1, FIG. 1); type: cell-based; settings: for Mole % recovered, PCE / Mole % recovered, TCE / Mole % recovered, cis-DCE / Total Cl Removed: 2 μg/ml substrate, 37° C., 2 hr; for Mole % recovered, PCE / Mole % recovered, TCE / Mole % recovered, cis-DCE: average of duplicate vials; for Total Cl Removed: calculated from input concentration and Mole % recovered
Description: (§1) Cultures were grown using strict anaerobic technique in a synthetic minimal medium amended with vitamins (DeWeerd, et al, Arch. of Microbiol. 154, 23-30 (1990)), pyruvate at 20 mM, and reduced with 1 mM cysteine and 0.1 mM Na2 S2 O4. The concentration of nicotinamide and 1,4-naphthoquinone were 500 μgl^-1 and 200 μgl^-1, respectively. Thiamine, hemin and lipoic acid were used at 50 μg/liter. To induce 3-chlorobenzoate dechlorination activity, 3-fluorobenzoate was added to 0.1 mM. The complete medium was inoculated with a 1% transfer from homologous medium (without fluorobenzoate). Cultures were grown at 37° C. in the dark for about 14 days for fresh cells or 28 days for starved stationary phase cells.
(§2) Cultures were harvested by centrifugation and resuspended in 20 to 40% of the initial volume in a cold anaerobic assay buffer normally consisting of 50 mM NaCl, 10 mM sodium pyruvate, 10 mM HEPES (N-2[hydroxyethylP]piperazine-N'-[2-ethanesulfonic acid], hemisodium salt Sigma);, 0.00001% resazurin and reduced with 1 mM cysteine-HCl and 1 mM titanium (III) citrate. Resuspended cells were used to completely fill N2 sparged 10 ml serum bottles after which chlorinated ethylenes were added from a 0.5 or 1 mg/ml stock in methanol for PCE and TCE respectively. The vials were immediately sealed with Teflon lined rubber septa and aluminum crimp seals, leaving no headspace. The assays were commenced by transferring the serum bottles to a 37° C. water bath. The assays were terminated at the indicated times by transferring the serum bottles to an ice water bath, where they were stored until analyzed. Protein concentrations were determined by a modification of the Lowry method (Hanson, R. S. and J. A. Phillips, In P. Gerhardt (ed.) Manual of methods for general microbiology. American Society for Microbiology, Washington, D. C. p. 328-364 (1981)).
(§3) Chlorinated ethylenes were monitored with a Tekmar purge and trap unit (model 4000) connected to a Hewlett-Packard GC (Sunnyville, Calif.) equipped with an HP-5 cappillary column (30 m×0.53 mm×2.6 μm film thickness) and flame ionization detector. Samples (5 ml) were purged onto Tenax TA (Supelco, Bellefonte, Pa.) adsorbent with helium (30 ml/min for 16 min.), desorbed (180° C. for 4 min.), and separated using helium as a carrier at 6 ml/min. The temperature program was 30° C. for 8 min, increasing to 200° C. at 4° C./min and followed by an isothermal period of 5 min. The injection and detector temperatures were 220° C. and 300° C., respectively. PCE and its dechlorinated products were identified by comparison with authentic standards.
To further examine the transformation of both PCE and TCE and to determine if dechlorination of TCE also requires induction, a similar experiment was conducted to measure the initial transformation rates of PCE and TCE (Table 1.). […] The extent of transformation of PCE to TCE ([…] in 2H) was considerably faster than the rate of transformation of TCE to DCE ([…] in 2h), as expected from the redox potentials of these reactions (Vogel, T. M., et al., Environ. Sci. Technol. 21:722-736 (1987)) and results from mixed culture systems (Bouwer, E. J., and P. L. McCarty, Appl. Environ. Microbiol. 45:1286-1294 (1983)). The rate of transformation of PCE and TCE were much greater for the induced cultures than for the non-induced cultures.
^a suspensions were amended with PCE or TCE to a final concentration
of 2 μg/ml and incubated at 37° C. for 2 hr. Suspensions of
induced and uninduced cells contained 149 and 153 μg protein per ml
^b Data are presented as the average of duplicate vials with the
sample standard deviation in parenthesis.
^c Calculated from the input concentration of chlorinated ethylenes
and the Mole % of recovered material.

[2] = system: Desulfomonile tiedjei cells; experiment: Effect of different medium reductants and sterilant on PCE dechlorination by induced cells (Table 2); type: cell-based; settings: PCE 1.66 μg/ml, 37° C., 2 hours
Description: The concentration of nicotinamide and 1,4-naphthoquinone were 500 μgl^-1 and 200 μgl^-1, respectively. Thiamine, hemin and lipoic acid were used at 50 μg/liter. To induce 3-chlorobenzoate dechlorination activity, 3-fluorobenzoate was added to 0.1 mM. The complete medium was inoculated with a 1% transfer from homologous medium (without fluorobenzoate). Cultures were grown at 37° C. in the dark for about 14 days for fresh cells or 28 days for starved stationary phase cells.
as §2, with “analyzed.” for “analyzed. Protein concentrations were determined by a modification of the Lowry method (Hanson, R. S. and J. A. Phillips, In P. Gerhardt (ed.) Manual of methods for general microbiology. American Society for Microbiology, Washington, D. C. p. 328-364 (1981)).”
as §3
Data are the average of duplicate vials and […]

[3] = system: Desulfomonile tiedjei cells; experiment: PCE dechlorination by starved stationary phase induced cells with or without pyruvate (Table 3); type: cell-based; settings: for Mole % recovered, PCE / Mole % recovered, TCE / Mole % recovered, cis-DCE / Mole % recovered, trans-DCE / Total Cl Removed: PCE 1.66 μg/ml, 37° C., 2 hours
Description: as §1, §2, §3
^a Starved stationary phase induced cultures were resuspended at a
concentration of 521 μg protein per ml in buffer without pyruvate,
amended with PCE to a final concentration of 1.66 μg/ml and incubated
at 37° C. for 2 hours. Data are the average of duplicate vials and
^b 0.1 mMole sodium pyruvate was added to duplicate vials before
addition of cell suspensions to give a final concentration of ca. 10 mM

Desulfomonile tiedjei = settings: cited from earlier work
[4] = system: Desulfomonile tiedjei cells; experiment: 3-chlorobenzoate dechlorination by starved stationary phase induced cells with or without pyruvate (Table 3); type: cell-based
Description: Cultures were grown using strict anaerobic technique in a synthetic minimal medium amended with vitamins (DeWeerd, et al, Arch. of Microbiol. 154, 23-30 (1990)), pyruvate at 20 mM, and reduced with 1 mM cysteine and 0.1 mM Na2 S2 O4. The concentration of nicotinamide and 1,4-naphthoquinone were 500 μgl^-1 and 200 μgl^-1, respectively. Thiamine, hemin and lipoic acid were used at 50 μg/liter. To induce 3-chlorobenzoate dechlorination activity, 3-fluorobenzoate was added to 0.1 mM. The complete medium was inoculated with a 1% transfer from homologous medium (without fluorobenzoate). […]
as §2, with “Resuspended cells were used to completely fill N2 sparged 10 ml serum bottles after which chlorinated ethylenes were added from a 0.5 or 1 mg/ml stock in methanol for PCE and TCE respectively. The vials were immediately sealed with Teflon lined rubber septa and aluminum crimp seals, leaving no headspace. The assays were commenced by transferring the serum bottles to a 37° C. water bath.” left out, “(1981)). […]” for “(1981)).”

[5] = system: 3-Chlorobenzoate Dechlorination Activity; experiment: Induction of 3-chlorobenzoate dechlorination activity by growth with 3-chlorobenzoate, analogues, or chloro- and iodobenzoates (Tables 4, 5); type: cell-based, Desulfomonile tiedjei
Description: Table 4. Cultures were grown in the presence of 3-chlorobenzoate or a 3-chlorobenzoate analogue substituted at the 1- or 3- position with the indicated functional groups. After several generations the culture were concentrated, washed and resuspended in anaerobic buffered salts containing 1 mM 3-chlorobenzoate and 10 mM pyruvate (as electron donor). […] After two hours samples were taken for benzoate analysis by HPLC. Values presented are the average of duplicate or triplicate cultures ± sample standard deviation.
Table 5. Chloro- and iodobenzoates were tested as inducers of 3-chlorobenzoate dehalogenation activity as described in the legend to Table 4. All compounds were initially at 500 μM; the 3-halo compounds were amended during growth as they were dehalogenated. Values presented are the average of duplicate or triplicate cultures± sample standard deviation.

## ClC(Cl)=C(Cl)Cl [PCE, tetrachloroethylene]
[1]; Only cultures pre-induced with 3-fluorobenzoate
  product formation from PCE or TCE: measurable product formation
[1]; cells grown with 0.1 mM 3-fluorobenzoate
  transformation of PCE to TCE and cis-DCE (FIG. 1): Rapid transformation
[1]; induced (+)
  Mole % recovered, PCE: 45.7 Mole %
  Mole % recovered, TCE: 54.3 Mole %
  Mole % recovered, cis-DCE: 0.0 Mole %
  Total Cl Removed: 43.9 μmol/g prot. in 2 h
[1]; induced cells, longer time course
  formation of trans-DCE from PCE: formation of small amounts of trans-DCE
[1]; non-induced (-)
  Mole % recovered, PCE: 100.0 Mole %
  Mole % recovered, TCE: 0.0 Mole %
  Mole % recovered, cis-DCE: 0.0 Mole %
  Total Cl Removed: 0.0 μmol/g prot. in 2 h
[1]; pre-induced with 3-fluorobenzoate
  extent of transformation of PCE to TCE: 43.8 mol g protein ^-1 in 2H
[1]; uninduced cells
  dechlorination of PCE (FIG. 1): no dechlorination was detected
[2]; Formaldehyde + (0.2%)
  Mole % recovered, PCE: 95.0 Mole %
  Mole % recovered, TCE: 5.0 Mole %
  Mole % recovered, cis-DCE: 0.0 Mole %
  Mole % recovered, trans-DCE: 0.0 Mole %
  Total Cl Removed: 1.0 μmol/g prot. in 2 h
[2]; Formaldehyde -
  Mole % recovered, PCE: 0.0 Mole %
  Mole % recovered, TCE: 26.4 Mole %
  Mole % recovered, cis-DCE: 69.4 Mole %
  Mole % recovered, trans-DCE: 4.2 Mole %
  Total Cl Removed: 34.1 μmol/g prot. in 2 h
[2]; reductant Na2 S (1 mM)
  Mole % recovered, PCE: 6.3 Mole %
  Mole % recovered, TCE: 18.6 Mole %
  Mole % recovered, cis-DCE: 70.7 Mole %
  Mole % recovered, trans-DCE: 4.4 Mole %
  Total Cl Removed: 45.4 μmol/g prot. in 2 h
[2]; reductant TiCit
  Mole % recovered, PCE: 0.0 Mole %
  Mole % recovered, TCE: 9.4 Mole %
  Mole % recovered, cis-DCE: 85.8 Mole %
  Mole % recovered, trans-DCE: 4.7 Mole %
  Total Cl Removed: 50.0 μmol/g prot. in 2 h
[3]; pyruvate + (ca. 10 mM)
  Mole % recovered, PCE: 2.1 Mole %
  Mole % recovered, TCE: 44.1 Mole %
  Mole % recovered, cis-DCE: 50.3 Mole %
  Mole % recovered, trans-DCE: 3.5 Mole %
  Total Cl Removed: 29.1 (0.8) μmol/g prot. in 2 h
[3]; pyruvate -
  Mole % recovered, PCE: 78.6 Mole %
  Mole % recovered, TCE: 21.4 Mole %
  Mole % recovered, cis-DCE: 0.0 Mole %
  Mole % recovered, trans-DCE: 0.0 Mole %
  Total Cl Removed: 4.1 (0.3) μmol/g prot. in 2 h
[3]; starved stationary phase cells
  PCE dechlorination in absence of pyruvate relative to presence of pyruvate: about 14%
Desulfomonile tiedjei; Fathepure et al.
  Dechlorination of PCE by D. tiedjei: 2.34 μmolg protein^-1 day^-1
Desulfomonile tiedjei; Suflita et al.
  Dechlorination of PCE by D. tiedjei: 4 μmol/l in five (5) months

## O=C(O)c1cccc(Cl)c1 [3-chlorobenzoate]
[4]
  3-chlorobenzoate dechlorination in absence of pyruvate relative to presence of pyruvate: about 12%
[5]; Table 4, inducers at 500 μM except 3-formylbenzoate 100 μM and 3-chlorobenzoate (amended at intervals), assay 1 mM 3-chlorobenzoate, two hours
  Induction Activity (3-chlorobenzoate dechlorination activity): 672 ± 8 nMol/hr/mg protein
[5]; Table 5, inducers initially 500 μM, 3-halo compounds amended during growth
  Induction Activity (3-chlorobenzoate dechlorination activity): 672 ± 8 nMol/hr/mg protein
